# Measurements: patent US5216001A, “Indole derivatives” (H. Lunbeck A/S, priority 1990, dated 1993)
# Like-named read-outs stand apart in the source and are kept apart here.
# How the values were obtained:
# [1] = animal test, Colpart et al. 1985; cited from earlier work
# α1 adrenoceptors = test: inhibition of 3H-prazosin binding to α1 adrenoceptors in rat brain in vitro; details: 3H-prazosin 0.25 nM, rat brain membranes, read-out: Binding IC50, 3H Praz.
# Experimental: INHIBITION OF ^3 H-PRAZOSIN BINDING TO α1 ADRENOCEPTORS IN RAT BRAIN IN VITRO
# Method and results in Hyttel and Larsen, J. Neurochem, 44, 1615-1622, 1985; Skarsfeldt and Hyttel, Eur. J. Pharmacol. 125, 323-340, 1986.
# Male Wistar (Mol:Wist) rats (125-200 g) are sacrificed and brain tissue is dissected and weighed. The tissue is homogenized (Ultra Turrax, 10 sec.) in 10 ml of ice-cold […] Tris buffer pH 7.7 (at 25° C.). The homogenate is centrifuged twice at 20,000 g for 10 min. at 4° C. with rehomogenization of the pellet in 10 ml ice-cold buffer. The final pellet is homogenized in 400 vol (w/v) ice-cold buffer.
# Incubation tubes kept on ice in triplicate receive 100 μl of drug solution in water (or water for total binding) and 4000 μl of tissue suspension (final tissue content corresponds to 10 mg original tissue). The binding experiment is initiated by addition of 100 μl of ^3 H-Prazosin (final concentration 0.25 nM) and by placing the tubes in a 25° C. water bath. After incubation for 20 min. the samples are filtered under vacuum (0-50 mBar) through Whatman GF/F filters (25 mm). The tubes are rinsed with 5 ml ice-cold buffer which then are poured on the filters. Thereafter, the filters are washed with 5 ml of buffer. The filters are placed in counting vials and 4 ml of appropriate scintillation fluid (e.g. Picofluor™15) are added. After shaking for 1 h and storage 2 hrs in the dark the content of radioactivity is determined by liquid scintillation counting. Specific binding is obtained by subtracting the nonspecific binding in the presence of 1 μM of Prazosin.
# For determination of the inhibition of binding five concentrations of drugs covering 3 decades are used.
# The measured cpm are plotted against drug concentration on semilogarithmic paper and the best fitting S-shaped curve is drawn. The IC50 value is determined as the concentration at which the binding is 50% of the total binding in control samples minus the nonspecific binding in the presence of 1 μM of Prazosin. ^3 H-Prazosin=[furoyl-5-^3 H]-Prazosin from New England Nuclear, specific activity approximately 20 Ci/mmol.
# 5-HT2 [2] = molecular target: T1, 5-HT2 (Rattus norvegicus, UniProt P14842); test: quipazine inhibition (quipazine-induced head twitches in rats); type: in vivo; details: for ED50: sc, read-out: Quipazine inhibition ED50, 2h (sc), s.c., 2 h before quipazine
# T1 construct: Four rats, male Wistar (Mol:Wist) SPF rats weighing 170-240 g; from tissue; host or cells: living male Wistar (Mol:Wist) SPF rats (in vivo, endogenous receptor)
# T1 sequence (P14842 whole entry): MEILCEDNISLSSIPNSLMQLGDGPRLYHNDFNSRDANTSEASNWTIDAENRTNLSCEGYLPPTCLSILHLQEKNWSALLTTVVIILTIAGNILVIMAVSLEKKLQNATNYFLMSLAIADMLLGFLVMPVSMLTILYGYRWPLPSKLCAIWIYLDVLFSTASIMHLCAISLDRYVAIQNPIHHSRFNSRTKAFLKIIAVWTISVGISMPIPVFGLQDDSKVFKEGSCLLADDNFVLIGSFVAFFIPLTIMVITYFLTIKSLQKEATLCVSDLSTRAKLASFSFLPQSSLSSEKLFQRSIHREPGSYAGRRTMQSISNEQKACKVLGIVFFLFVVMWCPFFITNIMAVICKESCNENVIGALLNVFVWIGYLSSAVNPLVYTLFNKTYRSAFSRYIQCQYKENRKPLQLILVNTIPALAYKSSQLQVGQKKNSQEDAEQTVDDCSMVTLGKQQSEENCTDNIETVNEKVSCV
# Experimental: Quipazine is a 5-HT2 agonist, which induces head twitches in rats. The test is a test for 5-HT2 -antagonistic effect testing the ability to inhibit head twitches. The method and test results for some reference substances are published by Arnt et al. (Drug Development Research, 16, 59-70, 1989).
# Test substance is injected s.c. 2 hrs before or p.o. 24 hrs before quipazine administration (6.8 mg/kg, s.c., dimaleate). Four rats, male Wistar (Mol:Wist) SPF rats weighing 170-240 g, are used at each dose level. A control group is included each test day. By repeated testing (2, 24 hrs) the control group is the same, however. After quipazine administration the rats are individually placed in the observation cages and head twitches are counted in an observation period of 30-40 min. after injection of quipazine.
# Total number of head twitches in each group is calculated and the result for each dose is expressed as per cent of the response in the control group. ED50 values are calculated by log-probit analysis. The test must be repeated if the average number of head twitches is lower than 9 in the control group.
# [3] = Klieser and Strauss 1988; cited from earlier work
# [4] = Janssen 1988; cited from earlier work
# 5-HT2 [5] = molecular target: T1, 5-HT2; test: quipazine inhibition (quipazine-induced head twitches in rats); type: in vivo; details: sc, s.c. (marked in cell), 24 h before quipazine, read-out: Quipazine inhibition ED50, 24h (sc)
# [6] = Bersani et al. 1990; cited from earlier work
# DA D-2 = molecular target: T2, DA D-2 (Rattus norvegicus, UniProt P61169); test: antagonism of pergolide-induced circling behaviour in rats with unilateral 6-OHDA lesions; type: in vivo; details: sc, read-out: Pergolide rot. inhibition ED50, 2h (sc), 6-OHDA lesions, s.c., 2 h before pergolide
# T2 construct: Male Wistar rats (Mol:Wist) weighing about 200 g at the time of operation are used; from tissue; host or cells: living male Wistar (Mol:Wist) rats with unilateral 6-OHDA lesions (in vivo, endogenous receptor)
# T2 sequence (P61169 whole entry): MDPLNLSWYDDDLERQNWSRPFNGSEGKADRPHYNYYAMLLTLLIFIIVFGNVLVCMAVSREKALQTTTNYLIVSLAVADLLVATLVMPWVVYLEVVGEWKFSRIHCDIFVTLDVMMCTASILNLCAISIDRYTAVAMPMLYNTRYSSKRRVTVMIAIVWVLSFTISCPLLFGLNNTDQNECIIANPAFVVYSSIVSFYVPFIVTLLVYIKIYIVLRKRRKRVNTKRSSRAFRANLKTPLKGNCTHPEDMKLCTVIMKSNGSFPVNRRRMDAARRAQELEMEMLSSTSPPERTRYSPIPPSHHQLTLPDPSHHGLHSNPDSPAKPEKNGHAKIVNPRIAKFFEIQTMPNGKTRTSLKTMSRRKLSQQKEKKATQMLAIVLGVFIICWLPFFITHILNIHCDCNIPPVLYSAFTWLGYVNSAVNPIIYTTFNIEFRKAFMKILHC
# Experimental: ANTAGONISM OF PERGOLIDE-INDUCED CIRCLING BEHAVIOUR IN RATS WITH UNILATERAL 6-OHDA LESIONS
# Dopamine (DA) D-2 agonists induce contralateral circling behaviour in rats with 6-OHDA lesions. Pergolide-induced circling is antagonized by DA D-2 antagonists.
# Male Wistar rats (Mol:Wist) weighing about 200 g at the time of operation are used. Unilateral lesions are made in pentobarbital anaesthetized rats by injection of 6-OHDA. HCl 9.7 μg/μl (equivalent to 8 μg free base) per 4 min. into the rostral tip of the substantia nigra. The saline solution contains ascorbic acid 0.2 mg/ml, is bubbled with N2 and is kept ice-cold. The experiments are done when stable contralateral circling responses to pergolide (0.05 μmol/kg, s.c.) are obtained. The circling response is measured in rotometer bowls. Only rats showing more than 400 complete turns in 2 hrs control session are used. Dose-response curves are obtained by alternating test and control sessions on a weekly basis. The antagonists are injected s.c. 2 hrs before the agonist. The effect of individual doses of test drugs is calculated as per cent of the mean effect of control sessions one week before and one week after the test session for each rat. ED50 values are calculated by log-probit analysis. Four to eight rats are used at each dosage.
Compound,effects reminiscent of anxiolytic drug activity [1],IC50 (α1 adrenoceptors) [µM],ED50 (5-HT2 [2]) [µmol/kg],antidepressant effect and depressive symptoms of schizophrenia [3],quality of sleep [4],ED50 (5-HT2 [5]) [µmol/kg],neuroleptic-induced parkinsonism [6],ED50 (DA D-2) [µmol/kg],"Quipazine inhibition ED50, 24h (po) (5-HT2 [2]; p.o., 24 h before quipazine) [µmol/kg]"
Cc1nc2sccn2c(=O)c1CCN1CCC(=C(c2ccc(F)cc2)c2ccc(F)cc2)CC1 [ritanserin],exert effects in an animal test reminiscent of anxiolytic drug activity,0.047,0.08,has been shown to be an antidepressant and to improve depressive symptoms of schizophrenia,improve the quality of sleep,0.98,relieve neuroleptic-induced parkinsonism,> 21,
"O=C1NCCN1CCN1CCC(c2cn(-c3ccc(F)cc3)c3ccc(Cl)cc23)CC1 [sertindole (Lu 23-174), 5-chloro-1-(4-fluorophenyl)-3-[1-[2-(2-imidazolidinon-1-yl)ethyl]-4-piperidyl]-1H-indole, reference compound]",,0.0034,0.04,,,,,7.2,0.04
